Experimental data reported in patent US10934274B2, “Quinoline derivatives as TAM RTK inhibitors” (Qurient Co., Ltd., priority 2015, dated 2021).

How the values were obtained:
Met = target: T1, Met (Homo sapiens, UniProt P08581); assay: LanthaScreen Eu kinase binding assay, Met; conditions: Tracer 236, read-out: cMet kinase binding activity (Kd)
T1 construct: purchased Life Technologies

TYRO3 = target: T2, TYRO3 (Homo sapiens, UniProt Q06418); assay: LanthaScreen Eu kinase binding assay, TYRO3; conditions: Tracer 236
T2 construct: purchased Life Technologies
T2 sequence (Q06418 41-890): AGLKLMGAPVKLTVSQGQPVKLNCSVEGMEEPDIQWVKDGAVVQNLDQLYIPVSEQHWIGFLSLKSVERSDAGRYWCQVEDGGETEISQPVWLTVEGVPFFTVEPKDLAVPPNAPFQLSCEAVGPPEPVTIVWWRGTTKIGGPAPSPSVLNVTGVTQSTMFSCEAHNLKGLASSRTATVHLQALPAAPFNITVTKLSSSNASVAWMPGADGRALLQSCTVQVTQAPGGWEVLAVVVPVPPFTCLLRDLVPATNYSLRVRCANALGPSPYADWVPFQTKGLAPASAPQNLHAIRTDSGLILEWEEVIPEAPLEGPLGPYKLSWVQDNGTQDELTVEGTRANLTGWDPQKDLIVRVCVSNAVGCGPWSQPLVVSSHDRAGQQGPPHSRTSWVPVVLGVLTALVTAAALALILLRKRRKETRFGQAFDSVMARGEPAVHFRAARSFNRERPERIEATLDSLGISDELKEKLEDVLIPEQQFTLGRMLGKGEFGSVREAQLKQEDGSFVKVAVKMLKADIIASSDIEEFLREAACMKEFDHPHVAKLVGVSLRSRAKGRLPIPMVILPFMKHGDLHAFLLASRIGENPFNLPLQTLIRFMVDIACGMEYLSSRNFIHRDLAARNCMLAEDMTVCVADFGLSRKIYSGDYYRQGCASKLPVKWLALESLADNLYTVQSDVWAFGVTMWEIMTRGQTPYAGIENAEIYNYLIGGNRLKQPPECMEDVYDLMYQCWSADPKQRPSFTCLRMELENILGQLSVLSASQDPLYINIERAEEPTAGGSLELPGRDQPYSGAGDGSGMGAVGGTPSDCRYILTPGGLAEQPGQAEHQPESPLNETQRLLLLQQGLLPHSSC

[1] = system: Axl phosphorylation in transiently transfected HEK293T cells; assay: Cellular Axl phosphorylation assay; format: cell-based; conditions: Homo sapiens, HEK-293T; HEK293T cells transfected with Axl, 1 hour compound treatment, Phospho-Axl vs Total-Axl
Method in brief: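 Axl-RTK was overexpressed by transfection in HEK293T cells to drive trans-autophosphorylation; cells were exposed to test compound for 1 hour. Phospho-Axl and total Axl were captured in lysates and detected by MSD electrochemiluminescence. IC50 was set between the DMSO group and the empty-vector-transfected minimum.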

T1 sequence (P08581 25-1390): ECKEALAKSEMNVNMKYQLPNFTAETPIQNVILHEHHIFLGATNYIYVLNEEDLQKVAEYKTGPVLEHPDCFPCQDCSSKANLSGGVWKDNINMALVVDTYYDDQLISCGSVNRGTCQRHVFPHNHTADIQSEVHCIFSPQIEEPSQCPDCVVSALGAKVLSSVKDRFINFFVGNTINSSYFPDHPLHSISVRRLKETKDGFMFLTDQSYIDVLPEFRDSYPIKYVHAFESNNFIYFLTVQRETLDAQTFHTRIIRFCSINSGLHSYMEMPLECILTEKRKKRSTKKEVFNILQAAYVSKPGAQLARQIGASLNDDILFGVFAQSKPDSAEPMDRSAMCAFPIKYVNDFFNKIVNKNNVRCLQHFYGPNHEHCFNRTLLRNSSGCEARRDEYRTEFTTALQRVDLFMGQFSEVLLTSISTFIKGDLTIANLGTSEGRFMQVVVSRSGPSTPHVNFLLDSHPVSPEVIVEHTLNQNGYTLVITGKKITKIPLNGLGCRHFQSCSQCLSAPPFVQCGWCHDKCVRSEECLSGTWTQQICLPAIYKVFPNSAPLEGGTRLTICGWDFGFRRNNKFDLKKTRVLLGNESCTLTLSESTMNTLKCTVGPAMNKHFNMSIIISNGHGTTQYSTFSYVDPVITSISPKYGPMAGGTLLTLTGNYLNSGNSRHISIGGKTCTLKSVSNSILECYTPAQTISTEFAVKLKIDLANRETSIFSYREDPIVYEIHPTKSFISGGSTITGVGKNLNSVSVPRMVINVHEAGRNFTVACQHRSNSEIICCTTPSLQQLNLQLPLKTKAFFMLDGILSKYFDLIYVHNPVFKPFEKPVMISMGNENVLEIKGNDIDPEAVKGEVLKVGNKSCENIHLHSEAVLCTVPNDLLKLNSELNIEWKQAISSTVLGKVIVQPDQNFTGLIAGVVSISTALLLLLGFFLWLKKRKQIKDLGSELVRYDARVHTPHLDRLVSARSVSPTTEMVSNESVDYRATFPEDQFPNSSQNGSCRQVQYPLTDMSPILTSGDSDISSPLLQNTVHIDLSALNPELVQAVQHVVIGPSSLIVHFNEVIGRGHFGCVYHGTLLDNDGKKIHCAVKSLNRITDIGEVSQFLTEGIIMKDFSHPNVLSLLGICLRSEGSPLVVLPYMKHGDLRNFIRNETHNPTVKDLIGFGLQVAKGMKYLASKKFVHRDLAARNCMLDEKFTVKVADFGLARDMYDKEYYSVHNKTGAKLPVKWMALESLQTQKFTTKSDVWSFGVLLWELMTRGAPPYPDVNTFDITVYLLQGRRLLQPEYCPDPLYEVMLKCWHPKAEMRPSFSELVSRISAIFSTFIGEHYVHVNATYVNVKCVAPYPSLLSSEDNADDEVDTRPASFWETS

SMILES	Kd (Met)	Kd (TYRO3)	IC50 [1]
CCOc1cn(-c2cncnc2C)nc1C(=O)Nc1ccc(Oc2ccnc3cc(OC)c(OC)cc23)cn1 [Compound 149]	< 100 nM	< 100 nM	< 100 nM
CCOc1cn(-c2cccnc2)nc1C(=O)Nc1ccc(Oc2ccnc3cc(OC)c(OC(F)(F)F)cc23)cn1 [Compound 199]	≥ 1000 nM	≥ 1000 nM	< 100 nM
CCOc1cn(-c2cnccc2C)nc1C(=O)Nc1ccc(Oc2ccnc3cc(OC)c(OC)cc23)nn1 [Compound 210]	< 100 nM	100 to 1000 nM	< 100 nM
CCOc1cn(-c2ccc(Cl)c(C(=O)N(C)C)c2)nc1C(=O)Nc1ccc(Oc2ccnc3cc(OC)c(OC)cc23)cn1 [Compound 129]	< 100 nM	≥ 1000 nM	< 100 nM
CCOc1cn(-c2cnc(Cl)cn2)nc1C(=O)Nc1ccc(Oc2ccnc3cc(OC)c(OC)cc23)cn1 [Compound 169]	≥ 1000 nM	≥ 1000 nM	< 100 nM
